Measured values published in patent publication US12077503B2, “Substituted cyclic amides and their use as herbicides” (FMC CORPORATION, priority 2015, dated 2024).

Experiments:
Type in all cases: in vivo
Kochia (Kochia scoparia) [1] = experiment: Test A preemergence; settings: Bassia scoparia, pre-emergence, 240 h, 0 to 100 scale where 0 is no effect and 100 is complete control, read-out: Kochia plant response rating
Procedure, shortened: (§1)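 Compounds were formulated in a non-phytotoxic solvent mixture with surfactant and applied as a preemergence directed soil spray after seeding, or sprayed postemergence over plants 2 to 10 cm tall at the one- to two-leaf stage. Evaluation after about 10 d compared treated with untreated controls, using a scale from 0 (no effect) to 100 (complete control).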

[2] = system: barnyardgrass (Echinochloa crus-galli); experiment: Test A preemergence; settings: Echinochloa crus-galli, pre-emergence, 240 h, 0 to 100 scale where 0 is no effect and 100 is complete control, read-out: Barnyardgrass plant response rating
Procedure, shortened: as §1

[3] = system: giant foxtail (Setaria faberii); experiment: Test A preemergence; settings: Setaria faberi, pre-emergence, 240 h, 0 to 100 scale where 0 is no effect and 100 is complete control, read-out: Foxtail, Giant plant response rating
Procedure, shortened: as §1

[4] = system: pigweed (Amaranthus retroflexus); experiment: Test A preemergence; settings: Amaranthus retroflexus, pre-emergence, 240 h, 0 to 100 scale where 0 is no effect and 100 is complete control, read-out: Pigweed plant response rating
[5] = system: ragweed (common ragweed, Ambrosia elatior); experiment: Test A preemergence; settings: Ambrosia artemisiifolia, pre-emergence, 240 h, 0 to 100 scale where 0 is no effect and 100 is complete control, read-out: Ragweed plant response rating
Procedure, shortened: as §1

[6] = system: ryegrass, Italian (Italian ryegrass, Lolium multiflorum); experiment: Test A preemergence; settings: Lolium multiflorum, pre-emergence, 240 h, 0 to 100 scale where 0 is no effect and 100 is complete control, read-out: Ryegrass, Italian plant response rating
Procedure, shortened: as §1

[7] = system: Galium (catchweed bedstraw, Galium aparine); experiment: Test A postemergence; settings: Galium, post-emergence, 240 h
Procedure, shortened: as §1

Kochia (Kochia scoparia) [8] = experiment: Test A postemergence; settings: Bassia scoparia, post-emergence, 240 h
Procedure, shortened: as §1

[9] = system: barnyardgrass (Echinochloa crus-galli); experiment: Test A postemergence; settings: Echinochloa crus-galli, post-emergence, 240 h
Procedure, shortened: as §1

[10] = system: blackgrass (Alopecurus myosuroides); experiment: Test A postemergence; settings: Alopecurus myosuroides, post-emergence, 240 h
Procedure, shortened: as §1

corn (Zea mays) = experiment: Test A postemergence; settings: Zea mays, post-emergence, 240 h
Procedure, shortened: as §1

[11] = system: giant foxtail (Setaria faberii); experiment: Test A postemergence; settings: Setaria faberi, post-emergence, 240 h
Procedure, shortened: as §1

[12] = system: pigweed (Amaranthus retroflexus); experiment: Test A postemergence; settings: Amaranthus retroflexus, post-emergence, 240 h, 125 g ai/ha, postemergence, visual injury vs untreated controls after approx. 10 d; 0 = no effect, 100 = complete control; read-out: Pigweed plant response rating (0 to 100 scale)
Procedure, shortened: as §1

[13] = system: ragweed (common ragweed, Ambrosia elatior); experiment: Test A postemergence; settings: Ambrosia artemisiifolia, post-emergence, 240 h, 125 g ai/ha, postemergence, visual injury vs untreated controls after approx. 10 d; 0 = no effect, 100 = complete control; read-out: Ragweed plant response rating (0 to 100 scale)
Procedure, shortened: as §1

[14] = system: ryegrass, Italian (Italian ryegrass, Lolium multiflorum); experiment: Test A postemergence; settings: Lolium multiflorum, post-emergence, 240 h, 125 g ai/ha, postemergence, visual injury vs untreated controls after approx. 10 d; 0 = no effect, 100 = complete control; read-out: Ryegrass, Italian plant response rating (0 to 100 scale)
Procedure, shortened: as §1

[15] = system: wheat (Triticum aestivum); experiment: Test A postemergence; settings: Triticum aestivum, post-emergence, 240 h, 125 g ai/ha, postemergence, visual injury vs untreated controls after approx. 10 d; 0 = no effect, 100 = complete control; read-out: Wheat plant response rating (0 to 100 scale)
Procedure, shortened: as §1

[16] = system: barnyardgrass (Echinochloa crus-galli); experiment: Test B flooded paddy test; settings: Echinochloa crus-galli, 250 g ai/ha, Flood; 0 to 100 scale where 0 is no effect and 100 is complete control; read-out: Barnyardgrass plant response rating
Procedure, shortened: (§2)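 Plants at 2-leaf stage flooded to 3 cm above soil, with compounds applied directly to paddy water and that depth maintained. Plants kept in greenhouse 13–15 d. Visual rating versus controls on a 0 (no effect) to 100 (complete control) scale.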

[17] = system: ducksalad (Heteranthera limosa); experiment: Test B flooded paddy test; settings: Heteranthera limosa, 250 g ai/ha, Flood; 0 to 100 scale where 0 is no effect and 100 is complete control; read-out: Ducksalad plant response rating
Procedure, shortened: as §2

rice (Oryra sativa) = experiment: Test B flooded paddy test; settings: Oryza sativa, 250 g ai/ha, Flood; 0 to 100 scale where 0 is no effect and 100 is complete control; read-out: Rice plant response rating
Procedure, shortened: as §2

[18] = system: sedge, umbrella (small-flower umbrella sedge, Cyperus difformis); experiment: Test B flooded paddy test; settings: Cyperus difformis, 250 g ai/ha, Flood; 0 to 100 scale where 0 is no effect and 100 is complete control; read-out: Sedge, Umbrella plant response rating
Procedure, shortened: as §2

[19] = 125 g ai/ha, preemergence, approx. 10 d

With `CN1C[C@H](c2cc(F)cc(C(F)(F)F)c2)[C@@H](C(=O)Nc2cccnc2F)C1=O` [Compound 1176] the pest or weed control at 31 g/ha (Kochia (Kochia scoparia) [1]; 31 g ai/ha, Preemergence) was 0%, the pest or weed control at 125 g/ha (Kochia (Kochia scoparia) [1]; [19]) was 40% and the pest or weed control at 31 g/ha ([2]; 31 g ai/ha, Preemergence) was 90%. It also gave a pest or weed control at 125 g/ha [2, 19] of 90%, a pest or weed control at 31 g/ha ([3]; 31 g ai/ha, Preemergence) of 90% and a pest or weed control at 125 g/ha [3, 19] of 90%. It also gave a pest or weed control at 31 g/ha ([4]; 31 g ai/ha, Preemergence) of 0%, a pest or weed control at 125 g/ha [4, 19] of 40% and a pest or weed control at 31 g/ha ([5]; 31 g ai/ha, Preemergence) of 0%. For the same compound, the pest or weed control at 125 g/ha [5, 19] was 0%, the pest or weed control at 31 g/ha ([6]; 31 g ai/ha, Preemergence) was 40% and the pest or weed control at 125 g/ha [6, 19] was 50%. The pest or weed control at 125 g/ha ([7]; 125 g ai/ha, postemergence, visual injury vs untreated controls after approx. 10 d, 0 = no effect, 100 = complete control, read-out: Galium plant response rating (0 to 100 scale)) was 50%, the pest or weed control at 31 g/ha ([7]; Postemergence, 31 g ai/ha, visual injury after approx. 10 d, 0 to 100 scale, 0 no effect, 100 complete control, read-out: Plant response rating, Galium) was 30% and the pest or weed control at 125 g/ha (Kochia (Kochia scoparia) [8]; 125 g ai/ha, postemergence, visual injury vs untreated controls after approx. 10 d, 0 = no effect, 100 = complete control, read-out: Kochia plant response rating (0 to 100 scale)) was 40%. For the same compound, the pest or weed control at 31 g/ha (Kochia (Kochia scoparia) [8]; Postemergence, 31 g ai/ha, visual injury after approx. 10 d, 0 to 100 scale, 0 no effect, 100 complete control, read-out: Plant response rating, Kochia) was 0%, the pest or weed control at 125 g/ha ([9]; 125 g ai/ha, postemergence, visual injury vs untreated controls after approx. 10 d, 0 = no effect, 100 = complete control, read-out: Barnyardgrass plant response rating (0 to 100 scale)) was 90% and the pest or weed control at 31 g/ha ([9]; Postemergence, 31 g ai/ha, visual injury after approx. 10 d, 0 to 100 scale, 0 no effect, 100 complete control, read-out: Plant response rating, Barnyardgrass) was 80%. It also gave a pest or weed control at 125 g/ha ([10]; 125 g ai/ha, postemergence, visual injury vs untreated controls after approx. 10 d, 0 = no effect, 100 = complete control, read-out: Blackgrass plant response rating (0 to 100 scale)) of 70%, a pest or weed control at 31 g/ha ([10]; Postemergence, 31 g ai/ha, visual injury after approx. 10 d, 0 to 100 scale, 0 no effect, 100 complete control, read-out: Plant response rating, Blackgrass) of 50% and a plant injury at 125 g/ha (corn (Zea mays); 125 g ai/ha, postemergence, visual injury vs untreated controls after approx. 10 d, 0 = no effect, 100 = complete control, read-out: Corn plant response rating (0 to 100 scale)) of 90%. The Corn plant response rating (crop injury, 0 = no effect, 100 = complete kill) at 31 g/ha (corn (Zea mays); Postemergence, 31 g ai/ha, visual injury after approx. 10 d, 0 to 100 scale, 0 no effect, 100 complete control) was 50%, the pest or weed control at 125 g/ha ([11]; 125 g ai/ha, postemergence, visual injury vs untreated controls after approx. 10 d, 0 = no effect, 100 = complete control, read-out: Foxtail, Giant plant response rating (0 to 100 scale)) was 80% and the pest or weed control at 31 g/ha ([11]; Postemergence, 31 g ai/ha, visual injury after approx. 10 d, 0 to 100 scale, 0 no effect, 100 complete control, read-out: Plant response rating, Foxtail, Giant) was 80%. The pest or weed control at 125 g/ha [12] was 0%, the pest or weed control at 125 g/ha [13] was 30% and the pest or weed control at 125 g/ha [14] was 30%. The plant injury at 125 g/ha [15] was 90%, the pest or weed control at 250 g/ha [16] was 95% and the pest or weed control at 250 g/ha [17] was 95%. It also gave a pest or weed control at 250 g/ha (rice (Oryra sativa)) of 0% and a pest or weed control at 250 g/ha [18] of 0%.
